The test system of this assay is subcutaneous CT26 colorectal carcinoma tumors. The experiment in a line: Tumor volume in mice bearing subcutaneous CT26 tumors. In kind it is in vivo. To be noted: BALB/c mice bearing CT26 tumor, i.v. of 1 mM TU:MTDs twice or three times, n = 3, observed until 9 days. The procedure:
Figure 1 Identification of TU17:MTD as a tumor targeting peptide (A) Schematic diagram of the fusion peptides consisting of the tumor-homing motif, linker, and mitochondrial targeting domain (MTD). (B) Tumors were generated over 2 weeks after s.c. injection of CT26 cells into the backs of BALB/c mice. […] Arrows indicate the points of peptide injection. P values < 0.02 (control group vs TU17:MTD at day 5, 6, 7, 8, and 9) (C) HCT116, HeLa, A549, MCF-7, PC3, and BJAB cells were treated with TU17:MTD (0 ~ 20 μM) for 30 minutes, and cell viability was monitored using XTT assays. *P < 0.05 (D) Primary splenocytes and macrophages were treated with TU17:MTD (0 ~ 20 μM) for 30 minutes, and cell viability was monitored by XTT assay. *P < 0.05 (E) CT26 cells were treated with R8:MTD, TU17:MTD, TU17-2:MTD or TU17:MTD^4A (0 ~ 40 μM) for 4 hours, and cell viability was monitored by XTT assay. Results in C to E are expressed as means ± SD (triplicates), and are representative of at least two independent experiments. P values are for experimental groups versus controls and were calculated using Dunnett's t-test. *P < 0.05.
Figure 3 Effects of TU17:MTD, TU17-2:MTD, and TU17-2:D(KLAKLAK)2 on tumor tissues in vivo (A) Tumors were generated over 7~8 days after s.c. injection of CT26 cells into the backs of BALB/c mice. […]

Bridge positions count the residues as written; N and C are the ends. Ends that are not written are not given here.

As to “KLLNLISKLFCRGDKRLYDC (disulfide 11-20 (inferred)) [TU11:MTD]”, the Toxicity/Tumor growth entry is given as “Toxic”.
With “CNGRCVSGCAGRCGGKLLNLISKLF [TU2:MTD, MTD peptide fused with tumor-homing motif, linear]”, the Toxicity/Tumor growth result is given as “NR (NR; no regression)”.

Values taken from publication PMC5078025, “Necrosis-inducing peptide has the beneficial effect on killing tumor cells through neuropilin (NRP-1) targeting” (Oncotarget, 2016).
